Data published in patent US12146155B2, “Method for constructing human pluripotent stem cell-derived liver organoid having enhanced drug metabolic potential and liver organoid constructed by same method” (KOREA RESEARCH INSTITUTE OF CHEMICAL TECHNOLOGY, priority 2021, dated 2024).

Key:
[1] = tested on: HepG2 and 2D HLC; experiment: Acetaminophen metabolite formation (LC-MS/MS); assay type: in vitro ADME, human; settings: 10 mM APAP
Method: Specifically, to measure the metabolites of APAP, reactions were performed in PHH, D-HO, S-HO, HepG2, and 2D HLC treated with 10 mM APAP for 24 hours at 37° C. in 5% CO2. APAP was treated to a final volume of 0.7 m ? per well in each 24-well culture plate. 70 μ ? of medium was collected at 3, 6, 12 and 24 hours, respectively, and the reaction was quenched by adding 70 μ ? of ice-cold ACN containing 100 nM BR-A-563 as an internal standard. The samples were centrifuged at 16,000 g for 10 minutes at 4° C. and the supernatant was applied to liquid chromatography-tandem mass spectrometry (LC-MS/MS). Data were normalized to protein concentration.

[2] = target: T1, MRP2 (Homo sapiens, UniProt Q92887); experiment: CDFDA staining of liver organoids with or without transporter inhibitor; assay type: cell-based; settings: 2 mM probenecid for 3 hours; D(−)-HO and S(−)-HO
T1 construct: endogenous in cells; host or cells: human iPSC-derived liver organoids (D(−)-HO, S(−)-HO)
Method: Specifically, the liver organoids were recovered on Matrigel and washed three times with DPBS. For CDFDA (5(6)-carboxy-2′,7′-dichlorofluorescein diacetate) staining, the liver organoids treated with or without 2 mM probenecid for 3 hours were stained with 10 μM CDFDA (Sigma-Aldrich) for 15 minutes at 37° C., 5% CO2. […] All samples were washed three times with DPBS, stained with Hoechst 33342, and observed under an Olympus FV3000 confocal microscope.

[3] = tested on: hiPSC-CM not cultured with liver organoids; experiment: MEA electrophysiology of hiPSC-CMs without liver organoids; assay type: cell-based, human
Method: (§1) Specifically, the electrical activity of Cardiosight®-S (NEXEL Co., South Korea), the hiPSC-CM, was measured using an MEA system (Axion BioSystems, Maestro, US) at 37° C. and perfused with 5% CO2, 20% O2, and 75% N2. The hiPSC-CMs were first seeded in a 12-well MEA plate at the density of 4×10^4 cells per well and maintained for 7 days in a cardiomyocyte culture medium provided by NEXEL Co. to stabilize with half-mid changes performed every 2 days. One week later, the culture medium was replaced with a liver organoid differentiation medium (DM). Transwell inserts (Corning) were then placed in each well, and FC-treated S(−)-HO was seeded in the inserts, followed by culture for 3 days. On the day of compound application, the culture medium was completely removed from the wells and inserts and fresh medium was added to ensure the correct volume per well (2 m ? /well total). Cells were allowed to equilibrate for 4 hours, and online parameters were monitored to ensure a stable baseline for at least 40 minutes. The cells were exposed to cyclophosphamide at a single dose per well. After application of the drug or control (0.1% DMSO), field potentials were measured every 5 minutes for 30 seconds for 72 hours. The field potential signals were recorded and analyzed using Axion BioSystems' integrated studio (AxIS) software to measure the beating frequency and field potential duration. […]

[4] = tested on: HepG2; experiment: Fimasartan metabolite formation (LC-MS/MS); assay type: in vitro ADME, human; settings: 50 μM FMS for 24 hours
Method: 70 μ ? of medium was collected at 3, 6, 12 and 24 hours, respectively, and the reaction was quenched by adding 70 μ ? of ice-cold ACN containing 100 nM BR-A-563 as an internal standard. The samples were centrifuged at 16,000 g for 10 minutes at 4° C. and the supernatant was applied to liquid chromatography-tandem mass spectrometry (LC-MS/MS). Data were normalized to protein concentration.

[5] = tested on: hiPSC-derived cardiomyocytes (hiPSC-CMs) co-cultured with FC-treated S(−)-HO
Method: as §1

T1 sequence (Q92887 whole entry): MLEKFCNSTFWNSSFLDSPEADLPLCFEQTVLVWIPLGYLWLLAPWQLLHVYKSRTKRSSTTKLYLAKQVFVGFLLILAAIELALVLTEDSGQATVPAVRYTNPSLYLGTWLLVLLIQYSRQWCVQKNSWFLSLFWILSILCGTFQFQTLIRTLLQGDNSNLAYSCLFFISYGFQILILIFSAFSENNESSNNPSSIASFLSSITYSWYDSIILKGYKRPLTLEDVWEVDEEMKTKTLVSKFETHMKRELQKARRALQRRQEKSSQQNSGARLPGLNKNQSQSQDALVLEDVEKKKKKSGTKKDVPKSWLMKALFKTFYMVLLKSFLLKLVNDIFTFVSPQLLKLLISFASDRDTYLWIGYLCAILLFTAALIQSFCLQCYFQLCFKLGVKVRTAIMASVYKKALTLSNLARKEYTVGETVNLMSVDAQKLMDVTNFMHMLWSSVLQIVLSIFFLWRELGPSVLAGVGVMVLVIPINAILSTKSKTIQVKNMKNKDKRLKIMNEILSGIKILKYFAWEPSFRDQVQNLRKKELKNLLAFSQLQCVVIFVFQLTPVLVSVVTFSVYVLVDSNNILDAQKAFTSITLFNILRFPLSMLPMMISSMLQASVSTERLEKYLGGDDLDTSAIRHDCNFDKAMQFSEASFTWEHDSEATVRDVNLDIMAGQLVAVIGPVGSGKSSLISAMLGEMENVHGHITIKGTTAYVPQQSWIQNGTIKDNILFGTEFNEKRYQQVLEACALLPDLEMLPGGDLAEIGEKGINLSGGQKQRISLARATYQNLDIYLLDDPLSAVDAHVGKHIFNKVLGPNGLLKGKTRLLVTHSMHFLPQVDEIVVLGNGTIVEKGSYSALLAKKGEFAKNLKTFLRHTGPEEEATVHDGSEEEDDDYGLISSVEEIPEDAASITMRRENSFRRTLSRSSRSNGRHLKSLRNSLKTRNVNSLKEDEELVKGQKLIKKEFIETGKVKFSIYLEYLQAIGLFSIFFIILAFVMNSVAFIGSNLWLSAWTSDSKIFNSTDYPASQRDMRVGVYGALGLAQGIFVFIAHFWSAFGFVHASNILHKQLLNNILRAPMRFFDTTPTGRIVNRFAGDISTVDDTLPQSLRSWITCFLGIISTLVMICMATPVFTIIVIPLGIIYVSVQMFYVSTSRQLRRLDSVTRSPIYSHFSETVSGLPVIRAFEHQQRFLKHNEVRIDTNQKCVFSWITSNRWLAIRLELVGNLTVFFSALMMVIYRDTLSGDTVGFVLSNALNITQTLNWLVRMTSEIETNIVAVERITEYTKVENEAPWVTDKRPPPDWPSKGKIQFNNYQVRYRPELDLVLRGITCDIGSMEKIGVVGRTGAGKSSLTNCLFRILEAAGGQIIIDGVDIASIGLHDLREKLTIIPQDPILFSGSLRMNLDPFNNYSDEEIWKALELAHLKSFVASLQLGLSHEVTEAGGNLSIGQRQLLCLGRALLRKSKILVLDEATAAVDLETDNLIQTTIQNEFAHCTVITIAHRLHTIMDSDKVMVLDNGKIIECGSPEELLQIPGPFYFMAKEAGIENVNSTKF

CC(=O)Nc1ccc(O)cc1 [acetaminophen, Acetaminophen]
APAP-GSH amount of metabolites [1]: no metabolites were detected

CCCN(CCC)S(=O)(=O)c1ccc(C(=O)O)cc1 [probenecid]
MRP2-specific fluorescence (CDFDA) when transporter blocked [2]: accumulated in the lumen of the liver organoids

CC(C)(C)c1ccc(C(O)CCCN2CCC(C(O)(c3ccccc3)c3ccccc3)CC2)cc1 (stereo not drawn) [terfenadine, Terfenadine]
time to spontaneous beating cessation after addition [3]: ≤ 30 min

CCCCc1nc(C)c(CC(=S)N(C)C)c(=O)n1Cc1ccc(-c2ccccc2-c2nnn[nH]2)cc1 [FMS, Fimasartan]
production of BR-A-535, a 3-step metabolite of FMS by CYP3A4 [4]: not observed

O=P1(N(CCCl)CCCl)NCCCO1 (stereo not drawn) [CP, Cyclophosphamide]
field potential duration corrected by beating frequency (FPDcF) ([5]; 250 μM, after 24 and 72 hours): increased
beating rate ([5]; 250 and 500 μM for 24 and 72 hours, compared to hiPSC-CM alone): significantly reduced
